Structures are written as SMILES.

For orientation: IC50 means the concentration at which inhibition is half-maximal.

The assay deals with HIV. As to the kind of experiment: Table 1 IC50 of the examples (assay method not given; patent concerns inhibiting HIV replication). The class given is cell-based. As to conditions: Human immunodeficiency virus 1.
In turn, `COc1cc(Cl)cc(C(=O)N2CCc3c2cc(C)c([C@H](OC(C)(C)C)C(=O)O)c3-c2cc(F)c3c(c2C)CCCO3)c1` (atropisomer, axis not shown) [Example 117] gave an IC50 of 16 nM.

In turn, `Cc1cc2c(c(-c3cc(F)c4c(c3C)CCCO4)c1[C@H](OC(C)(C)C)C(=O)O)CCN2C(=O)c1cccc(F)c1C` (atropisomer, axis not shown) [Example 96, (S)-2-(tert-Butoxy)-2-((R)-1-(3-fluoro-2-methylbenzoyl)-4-(8-fluoro-5-methylchroman-6-yl)-6-methylindolin-5-yl)acetic acid] had an IC50 of 4 nM.

For `Cc1ccc(C(=O)N2CCc3c2cc(C)c([C@H](OC(C)(C)C)C(=O)O)c3-c2cc(F)c3c(c2C)CCCO3)cc1C(F)(F)F` (atropisomer, axis not shown) [Example 146, (S)-2-(tert-Butoxy)-2-((R)-4-(8-fluoro-5-methylchroman-6-yl)-6-methyl-1-(4-methyl-3-(trifluoromethyl)benzoyl)indolin-5-yl)acetic acid], inhibition was half-maximal at 5 nM (IC50).

Compound `Cc1cc2c(c(-c3cc(F)c4c(c3C)CCCO4)c1[C@H](OC(C)(C)C)C(=O)O)CCN2C(=O)c1cc(Cl)cc(Cl)c1` (atropisomer, axis not shown) [Example 82, (S)-2-(tert-Butoxy)-2-((R)-1-(3,5-dichlorobenzoyl)-4-(8-fluoro-5-methylchroman-6-yl)-6-methylindolin-5-yl)acetic acid] displayed an IC50 of 12 nM.

Compound `COc1cc(C(=O)N2CCc3c2cc(C)c([C@H](OC(C)(C)C)C(=O)O)c3-c2cc(F)c3c(c2C)CCCO3)ccc1C(F)(F)F` (atropisomer, axis not shown) [Example 176, (S)-2-(tert-Butoxy)-2-((R)-4-(8-Fluoro-5-methylchroman-6-yl)-1-(3-methoxy-4-(trifluoromethyl)benzoyl)-6-methylindolin-5-yl)acetic acid] showed an IC50 of 5 nM.

As for `COc1ccc(F)c(C(=O)N2CCc3c2cc(C)c([C@H](OC(C)(C)C)C(=O)O)c3-c2cc(F)c3c(c2C)CCCO3)c1` (atropisomer, axis not shown) [Example 167, (S)-2-(tert-Butoxy)-2-((R)-1-(2-fluoro-5-methoxybenzoyl)-4-(8-fluoro-5-methylchroman-6-yl)-6-methylindolin-5-yl)acetic acid], the IC50 turned out to be 7 nM.

As to `Cc1cc2c(c(-c3cc(F)c4c(c3C)CCCO4)c1[C@H](OC(C)(C)C)C(=O)O)CCN2C(=O)c1ccc(Cl)cc1F` (atropisomer, axis not shown) [Example 138, (S)-2-(tert-Butoxy)-2-((R)-1-(4-chloro-2-fluorobenzoyl)-4-(8-fluoro-5-methylchroman-6-yl)-6-methylindolin-5-yl)acetic acid], the 50% inhibitory concentration (IC50) was found to be 5 nM.

Turning to `COc1ccc(C(=O)N2CCc3c2cc(C)c([C@H](OC(C)(C)C)C(=O)O)c3-c2cc(F)c3c(c2C)CCCO3)c(OC)c1` (atropisomer, axis not shown) [Example 88, (S)-2-(tert-Butoxy)-2-((R)-1-(2,4-dimethoxybenzoyl)-4-(8-fluoro-5-methylchroman-6-yl)-6-methylindolin-5-yl)acetic acid], the IC50 is 5 nM.

For the compound `Cc1ccc(-c2c3c(cc(C)c2[C@H](OC(C)(C)C)C(=O)O)N(C(=O)c2ccc(C)c(F)c2)CC3)cc1` [Example 31, (S)-2-(tert-Butoxy)-2-(1-(3-fluoro-4-methylbenzov)-6-methyl-4-(p-tolyl)indolin-5-yl)acetic acid], the IC50 was 12 nM.

`Cc1cc2c(c(-c3cc(F)c4c(c3C)CCCO4)c1[C@H](OC(C)(C)C)C(=O)O)CCN2C(=O)c1ccc2c(c1)OCC2` (atropisomer, axis not shown) [Example 178, (S)-2-(tert-Butoxy)-2-((R)-1-(2,3-Dihydrobenzofuran-6-carbonyl)-4-(8-fluoro-5-methylchroman-6-yl)-6-methylindolin-5-yl)acetic acid]: half-maximal inhibition (IC50) was put at 4 nM.

With `Cc1ccc(-c2c3c(cc(C)c2C(OC(C)(C)C)C(=O)O)N(C(=O)C(=O)N2CCCCC2)CC3)cc1` (centres unmarked) [Example 5, 2-(tert-Butoxy)-2-(6-methyl-1-(2-oxo-2-(piperidin-1-yl)acetyl)-4-(p-tolyl)indolin-5-yl)acetic acid], inhibition was half-maximal at 343 nM (IC50).

Compound `Cc1cccc(C(=O)N2CCc3c2cc(C)c([C@H](OC(C)(C)C)C(=O)O)c3-c2cc(F)c3c(c2C)CCCO3)c1C` (atropisomer, axis not shown) [Example 121, (S)-2-(tert-Butoxy)-2-((R)-1-(2,3-dimethylbenzoyl)-4-(8-fluoro-5-methylchroman-6-yl)-6-methylindolin-5-yl)acetic acid] had an IC50 of 7 nM.

Consider `COc1ccc(C(=O)N2CCc3c2cc(C)c([C@H](OC(C)(C)C)C(=O)O)c3-c2cc(F)c3c(c2C)CCCO3)cc1C(F)(F)F` (atropisomer, axis not shown) [Example 157, (S)-2-(tert-Butoxy)-2-((R)-4-(8-fluoro-5-methylchroman-6-yl)-1-(4-methoxy-3-(trifluoromethyl)benzoyl)-6-methylindolin-5-yl)acetic acid], for which the IC50 came to 6 nM.

As to `Cc1cc2c(c(-c3cc(F)c4c(c3C)CCCO4)c1[C@H](OC(C)(C)C)C(=O)O)CCN2C(=O)C1=CCCCC1` (atropisomer, axis not shown) [Example 130, (S)-2-(tert-Butoxy)-2-((R)-1-(cyclohex-1-ene-1-carbonyl)-4-(8-fluoro-5-methylchroman-6-yl)-6-methylindolin-5-yl)acetic acid], the IC50 came out at 4 nM.

On to `Cc1cc2c(c(-c3cc(F)c4c(c3C)CCCO4)c1[C@H](OC(C)(C)C)C(=O)O)CCN2C(=O)c1cccc2c1CCO2` (atropisomer, axis not shown) [Example 177, (S)-2-(tert-Butoxy)-2-((R)-1-(2,3-dihydrobenzofuran-4-carbonyl)-4-(8-fluoro-5-methylchroman-6-yl)-6-methylindolin-5-yl)acetic acid], for which the concentration for half-maximal inhibition (IC50) was determined as 2 nM.

`Cc1ccc(C(=O)N2CCc3c2cc(C)c([C@H](OC(C)(C)C)C(=O)O)c3-c2cc(C(F)(F)F)c3c(c2C)CCCO3)cn1` (atropisomer, axis not shown) [Example 197, (S)-2-(tert-Butoxy)-2-((R)-6-methyl-4-(5-methyl-8-(trifluoromethyl)chroman-6-yl)-1-(6-methylnicotinoyl)indolin-5-yl)acetic acid] registered an IC50 of 712 nM.

Take `Cc1cc2c(c(-c3cc(F)c4c(c3C)CCCO4)c1[C@H](OC(C)(C)C)C(=O)O)CCN2C(=O)c1ccc(C(=O)N2CCCCC2)cc1` (atropisomer, axis not shown) [Example 112, (S)-2-(tert-Butoxy)-2-((R)-4-(8-fluoro-5-methylchroman-6-yl)-6-methyl-1-(4-(piperidine-1-carbonyl)benzoyl)indolin-5-yl)acetic acid]: the IC50 amounted to 295 nM.

The compound `Cc1ccc(-c2c3c(cc(C)c2[C@H](OC(C)(C)C)C(=O)O)N(C(=O)c2ccc(Cl)cc2)CC3)cc1` [Example 22, (S)-2-(tert-Butoxy)-2-(1-(4-chlorobenzoyl)-6-methyl-4-(p-tolyl)indolin-5-yl)acetic acid] showed an IC50 of 11 nM.

The compound `Cc1cc2c(c(-c3cc(F)c4c(c3C)CCCO4)c1[C@H](OC(C)(C)C)C(=O)O)CCN2C(=O)c1ccncc1F` (atropisomer, axis not shown) [Example 91, (S)-2-(tert-Butoxy)-2-((R)-4-(8-fluoro-5-methylchroman-6-yl)-1-(3-fluoroisonicotinoyl)-6-methylindolin-5-yl)acetic acid] yielded an IC50 of 156 nM.

Compound `Cc1cc2c(c(-c3cc(F)c4c(c3C)CCCO4)c1[C@H](OC(C)(C)C)C(=O)O)CCN2C(=O)C1CC1` (atropisomer, axis not shown) [Example 132, (S)-2-(tert-Butoxy)-2-((R)-1-(cyclopropanecarbonyl)-4-(8-fluoro-5-methylchroman-6-yl)-6-methylindolin-5-yl)acetic acid] had an IC50 of 414 nM.

For the compound `Cc1cc2c(c(-c3cc(F)c4c(c3C)CCCO4)c1[C@H](OC(C)(C)C)C(=O)O)CCN2C(=O)c1ccc(F)c(Cl)c1` (atropisomer, axis not shown) [Example 119, (S)-2-(tert-Butoxy)-2-((R)-1-(3-chloro-4-fluorobenzoyl)-4-(8-fluoro-5-methylchroman-6-yl)-6-methylindolin-5-yl)acetic acid], it took 3 nM to reach half-maximal inhibition (IC50).

For `COc1ccc(C(=O)N2CCc3c2cc(C)c([C@H](OC(C)(C)C)C(=O)O)c3-c2ccc3c(c2C)CCCO3)cc1OC` (atropisomer, axis not shown) [Example 186, (S)-2-(tert-Butoxy)-2-((R)-1-(3,4-dimethoxybenzoyl)-6-methyl-4-(5-methylchroman-6-yl)indolin-5-yl)acetic acid], the IC50 stood at 6 nM.

The compound `Cc1cc2c(c(-c3cc(F)c4c(c3C)CCCO4)c1[C@H](OC(C)(C)C)C(=O)O)CCN2C(=O)C1CCOCC1` (atropisomer, axis not shown) [Example 65, (S)-2-(tert-Butoxy)-2-((R)-4-(8-fluoro-5-methylchroman-6-yl)-6-methyl-1-(tetrahydro-2H-pyran-4-carbonyl)indolin-5-yl)acetic acid] returned an IC50 of 378 nM.

`Cc1cc2c(c(-c3cc(F)c4c(c3C)CCCO4)c1[C@H](OC(C)(C)C)C(=O)O)CCN2C(=O)c1cccc2c1CCCO2` (atropisomer, axis not shown) [Example 169, (S)-2-(tert-Butoxy)-2-((R)-1-(chromane-5-carbonyl)-4-(8-fluoro-5-methylchroman-6-yl)-6-methylindolin-5-yl)acetic acid] came in with an IC50 of 2 nM.

The compound `COc1ccc(C(=O)N2c3cc(C)c([C@H](OC(C)(C)C)C(=O)O)c(-c4cc(F)c5c(c4C)CCCO5)c3CC2(C)C)cc1C` (atropisomer, axis not shown) [Example 206, (S)-2-(tert-Butoxy)-2-((R)-4-(8-fluoro-5-methylchroman-6-yl)-1-(4-methoxy-3-methylbenzoyl)-2,2,6-trimethylindolin-5-yl)acetic acid] had an IC50 of 13 nM.

`Cc1cc2c(c(-c3cc(F)c4c(c3C)CCCO4)c1[C@H](OC(C)(C)C)C(=O)O)CCN2C(=O)C(=O)c1ccccc1` (atropisomer, axis not shown) [Example 175, (S)-2-(tert-Butoxy)-2-((R)-4-(8-fluoro-5-methylchroman-6-yl)-6-methyl-1-(2-oxo-2-phenylacetyl)indolin-5-yl)acetic acid] had an IC50 of 90 nM.

The record behind these values is patent publication US20190284136A1, “INDOLINE DERIVATIVES” (ViiV HEALTHCARE UK LIMITED, priority 2016, published 2019).
